Results published in patent publication US20070032551A1, “Salt of dimethylaminomethyl-phenyl-cyclohexane and crystalline forms thereof” (GRUENENTHAL GMBH, priority 2005, published 2007).

How the values were obtained:
[1] = Hygroscopicity (general statement); type: physicochemical
[2] = Bioavailability (general statement)
[3] = Solubility (general statement)
[4] = Damp storage and drying of fumarate and hydrochloride (Example E9); type: physicochemical; settings: for change in the crystalline form (X-ray diffraction diagrams): after damp storage and drying; for DW (dry weight), starting value / WC (Karl Fischer water content), starting value: before the start of the storage
Description: Fumarate and hydrochloride according to Example E8 are first stored at 25° C. and 75% and 95% relative atmospheric humidity for 7 days and thereafter at 50° C. in vacuo in a drying cabinet for 7 days. Before the start of the storage, the X-ray diffraction diagrams (XRD), DSC for determination of transition points (Tp) and dry weight (DW) and the Karl Fischer water content (WC) are determined, and the same values are determined after the damp storage and drying. The X-ray diffraction diagrams show no change in the crystalline forms A and D after damp storage and drying. The starting values for the hydrochloride are Tp=116.27° C., DW=6.35% and WC=8.00%. The starting values for the fumarate are Tp=93.11° C. and 175.14° C., DW=0 and WC=0.2%. The results are given in Tables 7 (75% relative atmospheric humidity) and 8 (95% relative atmospheric humidity).

[5] = Water uptake of fumarate and hydrochloride by DVS (Example E8); type: physicochemical; settings: 25° C.
Description: (§1) The water uptake is determined by means of dynamic water vapor uptake (dynamic vapor sorption, DVS) with the DVS-1 apparatus from Surface Measurement Systems Ltd. The sample is placed in a platinum crucible on the tip of a microbalance. The sample is then first equilibrated at 50% relative atmospheric humidity and subsequently subjected to a predefined measurement program. The temperature is 25° C. The change in weight of the sample after a stepwise increase in the relative atmospheric humidity by in each case 10% to 90% is determined.

[6] = Storage at room temperature in high and low atmospheric humidity, crystal form by Raman (Examples E1-E3, B1); type: physicochemical; settings: for crystalline form after storage / crystalline form after storage (Raman): room temperature
Description: Unless stated otherwise, the crystal forms are determined by comparison of the Raman spectra.
a) 30 mg of the amorphous fumarate prepared according to Example Bi are stored at room temperature and 75% relative atmospheric humidity for 5 days.
b) 30 mg of the amorphous fumarate prepared according to Example B2 are stored at room temperature and 90% relative atmospheric humidity for 3 days.
c) 30 mg of the amorphous fumarate prepared according to Example B2 are stored at room temperature and 53% relative atmospheric humidity for 2 months.
d) 30 mg of the amorphous fumarate prepared according to Example B2 are stored at room temperature and 22% relative atmospheric humidity for 2 months. Thereafter, the amorphous product is still present.
The fumarate prepared according to Example C3 is stored at room temperature and 75% relative atmospheric humidity, and after 3 days and 1, 2, 3, 4 and 8 weeks samples are analyzed by means of Raman spectroscopy.
The crystalline form B prepared according to Example A1 is stored at room temperature and 75% relative atmospheric humidity, and after 3 days and 1, 2, 3, 4 and 8 weeks samples are analyzed by means of Raman spectroscopy.

[7] = Water uptake by dynamic vapor sorption (Example E6); type: physicochemical; settings: 25° C.; for crystalline form present at the end of the DVS measurement: fumarate; for water uptake: DVS
Description: as §1, with “sample” for “sample after a stepwise increase in the relative atmospheric humidity by in each case 10% to 90%”

[8] = Stability at elevated temperature, HPLC and FT Raman (Example E7); type: physicochemical; settings: for stability at elevated temperature (in words): open and closed vessels
Description: The crystalline forms are stored in open and closed vessels and possible changes are measured as stability parameters by chromatography (HPLC) after a given time.

[9] = Stability under pressure, pressing of tablets (Example E5); type: physicochemical; settings: 100 MPa in vacuo, 60 minutes
Description: The fumarate prepared according to Example C3 is introduced into a tablet press and pressed to a tablet under a pressure of 100 MPa in vacuo for 60 minutes.

[10] = Stability under grinding conditions (Example E4); type: physicochemical; settings: for crystalline form after trituration: pestle in a mortar dish, 5 minutes; for crystalline form after grinding: agate ball mill, 20 Hz, room temperature, 180 minutes
Description: The fumarate prepared according to Example C3 is triturated with a pestle in a mortar dish for 5 minutes.
The fumarate prepared according to Example A1 is introduced into an agate ball mill (Retsch MM200 mixing mill with 5 mm agate balls) and ground at 20 Hz and room temperature for 180 minutes.

[11] = 75% r.h. storage, then drying at 50° C. in vacuo for 7 days
[12] = 95% r.h. storage, then drying at 50° C. in vacuo for 7 days
[13] = after damp storage, 25° C., 75% relative atmospheric humidity, 7 days
[14] = after damp storage, 25° C., 95% relative atmospheric humidity, 7 days
[15] = 75% relative atmospheric humidity, after 8 weeks, fumarate
[16] = 40° C./75% r.h., 1 week, fumarate
[17] = 60° C. (closed), 1 week, fumarate
[18] = 60° C. (closed), 4 weeks, fumarate
[19] = 60° C./75% r.h., 4 weeks, fumarate

Row | Structure (SMILES) | hygroscopicity [1] | WC (%) [4, 11] | WC (%) [4, 12] | change in the crystalline form (X-ray diffraction diagrams) [4] | WC (%) [4, 13] | WC (%) [4, 14] | DW (dry weight), starting value [4] | WC (Karl Fischer water content), starting value [4] | crystalline form present at the end of the DVS measurement [7] | crystalline form after storage (Raman) [6, 15] | water uptake ([7]; measurement cycle) | HPLC [8, 16] | HPLC [8, 17] | HPLC [8, 18] | HPLC [8, 19] | stability at elevated temperature (in words) ([8]; fumarate) | HPLC ([8]; −18° C. (reference), 4 weeks) | crystalline form after pressing to a tablet [9] | solubility in polar solvents [3] | further results
1 | CN(C)CC1CCCCC1c1cccc(O)c1.O=C(O)/C=C/C(=O)O (centres unmarked) [3-[2-(dimethylamino)methyl-(cyclohex-1-yl)]-phenol fumarate] | not hygroscopic | – | – | – | – | – | – | – | – | – | – | – | – | – | – | – | – | – | – | bioavailability [2]: good; solubility ([3]; particularly in polar and protic solvents, including water): good
2 | CN(C)CC1CCCCC1c1cccc(O)c1.Cl (centres unmarked) [3-[2-(dimethylamino)methyl-(cyclohex-1-yl)]-phenol hydrochloride, reference compound] | decidedly hygroscopic | – | – | – | – | – | – | – | – | – | – | – | – | – | – | – | – | – | – | –
3 | CN(C)C[C@@H]1CCCC[C@H]1c1cccc(O)c1.Cl [Hydrochloride, (+)-(1R,2R)-3-[2-(Dimethylamino)methyl-(cyclohex-1-yl)]-phenol hydrochloride] | – | 6.00% | 6.60% | no change | 8.50% | 8.50% | 6.35% | 8.00% | – | – | – | – | – | – | – | – | – | – | – | DW (%) [4, 11]: 6.12%; DW (%) [4, 12]: 6.74%; DW (%) [4, 13]: 5.92%; DW (%) [4, 14]: 7.84%; water uptake in total ([5]; 90% relative atmospheric humidity): about 5 wt. %; water uptake ([5]; relative atmospheric humidity increased to about 75%): about 2 wt. %; water released on desorption, in total ([5]; stepwise lowering of relative atmospheric humidity by 10%): 8.5%
4 | CN(C)C[C@@H]1CCCC[C@H]1c1cccc(O)c1.O=C(O)/C=C/C(=O)O [amorphous form, (+)-(1R,2R)-3-[2-(dimethylamino)methyl-(cyclohex-1-yl)]-phenol fumarate] | – | – | – | – | – | – | – | – | crystalline form A | – | – | – | – | – | – | – | – | – | – | form after storage ([6]; 22% relative atmospheric humidity and 25° C., after 2 months): still amorphous; crystalline form after storage ([6]; 22% relative atmospheric humidity, 2 months): still present; crystalline form after storage ([6]; 53% relative atmospheric humidity, 2 months): converted completely into the crystalline form B; crystalline form after storage ([6]; 75% relative atmospheric humidity, 5 days): converted completely into the crystalline form B; crystalline form after storage ([6]; 90% relative atmospheric humidity, 3 days): converted completely into the crystalline form B; water uptake ([7]; up to about 77% relative atmospheric humidity): about 6.5 wt. %
5 | CN(C)C[C@@H]1CCCC[C@H]1c1cccc(O)c1.O=C(O)/C=C/C(=O)O [crystalline form A, (+)-(1R,2R)-3-[2-(dimethylamino)methyl-(cyclohex-1-yl)]-phenol fumarate] | – | – | – | – | – | – | – | – | substantially the crystalline form B | crystalline form B is also present | about 0.2 wt. % | 99.5% | 99.9% | 99.6% | 99.3% | very stable in respect of chemical stability and crystal form | 100% | mixture of the crystalline forms A and B | very good | crystalline form after storage (Raman) ([6]; 75% relative atmospheric humidity, after 3 days): converted into the crystalline form B; FT Raman (determination of the crystalline form) ([8]; 60° C. (closed), 1 week): A and B; FT Raman (determination of the crystalline form) ([8]; 60° C. (closed), 4 weeks): A and B; FT Raman (determination of the crystalline form) ([8]; −18° C. (reference), 4 weeks): A and B; crystalline form after trituration ([10]; listed as Example C3, fumarate): mixture of the crystalline form A and B
6 | CN(C)C[C@@H]1CCCC[C@H]1c1cccc(O)c1.O=C(O)/C=C/C(=O)O [crystalline form B, (+)-(1R,2R)-3-[2-(dimethylamino)methyl-(cyclohex-1-yl)]-phenol fumarate] | not hygroscopic | 0.30% | 0.30% | no change | 0.50% | 0.50% | 0% | 0.2% | unchanged | practically unchanged | about 0.2 wt. % | 100.0% | 99.0% | 100.6% | 99.1% | very stable in respect of chemical stability | 100% | mixture of the crystalline forms A and B | very good | release of absorbed moisture on desorption ([5]; at about 10% relative atmospheric humidity): released again completely; water uptake ([5]; stepwise increase of relative atmospheric humidity by 10% to 90%): 0.13%; crystalline form after grinding ([10]; fumarate): mixture of the crystalline forms A and B; crystalline form after grinding ([10]; listed as Example A1, fumarate): mixture of the crystalline form A and B; crystalline form after trituration ([10]; fumarate): unchanged
